Laboratory results from PMC3289605, “A Novel G Protein-Coupled Receptor of Schistosoma mansoni (SmGPR-3) Is Activated by Dopamine and Is Widely Expressed in the Nervous System” (PLoS Neglected Tropical Diseases, 2012).
Where two headings read alike, the source gives them in different places.

Experiments:
SmGPR-2 = system: SmGPR-2; parameters: method as in PMID 20430030; settings: cited from earlier work
S. mansoni schistosomula = experiment: Motor activity of schistosomula in culture (frequency of body length changes); type: cell-based, Schistosoma mansoni; settings: for concentration at which significant inhibition of motility was observed: range tested 10^−7 M–10^−4 M
Protocol: 3-day old in vitro transformed schistosomula were placed in individual wells of a 24-well plate (30–40 animals/well) in 300 µl of OPTI-MEM+10% dialyzed serum. Following an adaptation period of 15 min at room temperature, test substances were added at a final concentration of 100 µM or as indicated. Animals were monitored 5 min after drug addition by placing the 24-well plate on a compound microscope (Nikon, SMZ1500) equipped with a digital video camera (QICAM Fast 1394, mono 12 bit, Qimaging) and SimplePCI version 5.2 (Compix Inc.) for image acquisition. Images were obtained at a rate of ≈3 frames/s for a period of 1 minute and the data were analyzed with ImageJ software (version 1.41, NIH, USA). Cultured schistosomula display complex motor behaviours that are dominated by repeated changes in length, both shortening and elongation. To quantify this type of movement, we used the “Fit-Ellipse” command of ImageJ to draw best-fit ellipses of individual animals in each recorded frame. An estimate of body length was obtained by measuring the principal (“major”) axis of each ellipse, using calibrated units (µm), and the frequency of length changes during the observation period was calculated. Any change representing >10% of body length, whether an increase or decrease, was included in the calculation; changes ≤10% were disregarded. Between 12–15 animals were monitored per well and the experiment was repeated a minimum of 3 times. To monitor for possible drug induced toxicity, viability tests were performed routinely using the methylene blue dye exclusion assay described by Gold.
To explore this possibility we tested the effects of several SmGPR-3 agonists and antagonists on the motor activity of intact schistosomula in culture. […] We used a larval stage (schistosomula) instead of adult worms because the larvae are better suited for quantitative measurements of movement. […] To quantitate motor activity, we monitored individual schistosomula in the presence and absence of test substances, using a microscope equipped with a video camera and imaging software. Approximately 180 consecutive frames were recorded for each animal over 1 min of observation and the approximate length of the animal in each frame was measured in calibrated units (µm). […] To quantify the level of motor activity, we repeated experiments at different concentrations of each amine and then calculated the frequency of length changes, both decrease and increase for each individual animal during the 1 min of observation. Mean values were obtained from the average of 12–15 animals/experiment and each experiment was repeated a minimum of 3 times.
Figure 7 Effects of dopamine and related substances on schistosome motility. (A) In vitro transformed 3-day-old schistosomula were incubated with test drug, dopamine (DA) or epinine (EPN), each at (10^−4 M) or vehicle (CT, control). Animals were treated for 5 min at room temperature, after which they were examined with a compound microscope equipped with a digital video camera and SimplePCI (Compix Inc.) for image acquisition. Images were recorded for 1 minute (∼3 frames/second) and an estimate of body length in µm was obtained for each animal in every frame. Each tracing shown is of an individual animal and is representative of 12–15 larvae per experiment and 3–4 independent experiments per treatment.

SmGPR-3 [1] = target: T1, SmGPR-3 (Schistosoma mansoni, UniProt C4Q8W8); experiment: cell-based; settings: for inhibition of SmGPR-3 activity: highest concentration tested, in the presence of 100 µM DA
T1 sequence (C4Q8W8 1-497): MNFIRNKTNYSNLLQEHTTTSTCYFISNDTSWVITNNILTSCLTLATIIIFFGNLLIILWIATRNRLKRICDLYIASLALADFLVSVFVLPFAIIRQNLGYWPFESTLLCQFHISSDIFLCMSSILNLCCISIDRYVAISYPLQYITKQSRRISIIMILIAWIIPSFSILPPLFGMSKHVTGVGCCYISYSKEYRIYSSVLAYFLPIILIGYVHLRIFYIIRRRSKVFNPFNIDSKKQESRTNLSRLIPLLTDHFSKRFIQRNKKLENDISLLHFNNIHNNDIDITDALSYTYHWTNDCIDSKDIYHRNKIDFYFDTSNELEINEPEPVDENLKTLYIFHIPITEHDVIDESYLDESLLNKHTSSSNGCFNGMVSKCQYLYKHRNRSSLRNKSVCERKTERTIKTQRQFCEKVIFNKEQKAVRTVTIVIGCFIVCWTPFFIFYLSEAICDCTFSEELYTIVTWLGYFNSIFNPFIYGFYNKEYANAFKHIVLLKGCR
Text: (§1) The SmGPR-3 coding sequence was sub-cloned between the NcoI/XbaI restriction sites of the yeast expression vector Cp4258 (kindly provided by Dr J. Broach, Princeton University, NJ, USA). The functional expression assay was adapted from the protocol of Wang and colleagues as described, [30]. The receptor was expressed in Saccharomyces cerevisiae strain YEX108 (MATα PFUS1-HIS3 PGPA1-Gαq(41)-GPA1-Gaq(5) can1 far1Δ 1442 his3 leu2 lys2 sst2Δ2 ste14::trp1::LYS2 ste18Δ6-3841 ste3Δ1156 tbt1-1 trp1 ura3; kindly provided by J. Broach, Princeton University, NJ, USA). This strain expresses the HIS3 reporter gene under the control of the FUS1 promoter and contains an integrated copy of a chimeric Gα gene in which the first […] and last five codons of native yeast Gα (GPA1) were replaced with those of human Gαq. […] YPD culture medium (1% yeast extract, 2% peptone and 2% dextrose) was used to culture YEX108 strain, according to standard conditions. The lithium acetate method was performed to transform yeast with either empty Cp4258 vector (mock) or Cp4258/SmGPR-3 expression plasmid, using 200 µl mid-log phase cells, 200 µg carrier single stranded DNA (Invitrogen) and 1 µg plasmid. Positive transformants were selected on synthetic complete (SC) 2% glucose solid medium lacking leucine (SC/leu^−). For agonist assays, single colonies of transformants were cultured overnight in SC/leu^− liquid medium at 250 rpm/30°C. The next day, cells were washed four times in SC 2% glucose liquid medium that lacked both leucine and histidine (SC/leu^−/his^−). Cells were finally resuspended in SC/leu^−/his^− medium supplemented with 50 mM 3-(N-morpholino) propanesulfonic acid (MOPS), pH 6.8 and 1.5 mM 3-Amino-1, 2, 4-Triazole (3-AT). The latter was used to reduce basal growth due to endogenous background signalling as it inhibits the gene product of HIS3 [29]. Aliquots containing approximately 3,000 cells were added to individual wells of a 96-well plate containing test agonist or vehicle plus additional medium for a total reaction volume of 100 µl. The plates were incubated at 30°C for 22–26 h, after which 10 µl of Alamar blue (Invitrogen) was added to each well. The plates were returned to the 30°C incubator until the Alamar blue color started to shift to pink (approximately 1–4 h) and fluorescence (560 nm excitation/590 nm emission) was measured at 30°C every hour up to three hours, using a plate fluorometer (FlexStation II, Molecular Devices, US). Antagonist assays were done in a similar way, except that each well contained 10^−4 M agonist (dopamine) and the antagonist at the specified concentration. Data analyses and dose-response curve fits were performed using Prism v5.0 (GraphPad software Inc.).
(§2) Next we examined the effects of classical (mammalian) dopaminergic and other BA antagonists on the activity of SmGPR-3. Drugs were tested initially at a single concentration of 100 µM (10 µM in the case of flupenthixol) in the presence of 100 µM DA (Fig. 4A). […] Those drugs that produced significant inhibition (>50%) in the initial screen were subsequently tested at different concentrations to obtain dose response curves (Fig. 4B–F). […] To test this possibility, we repeated the assay in medium supplemented with histidine (100 µM), which enables cell growth irrespective of receptor activation.
Figure 4 Antagonist effects on SmGPR-3 activity. (A) Yeast YEX108 auxotrophic his strain expressing SmGPR-3 was incubated with agonist (DA, 100 µM) and test antagonist or vehicle. Antagonists were tested at 100 µM except for flupenthixol, which was used at 10 µM.

[2] = system: Saccharomyces cerevisiae strain YEX108; experiment: Drug-induced toxicity control: yeast growth in histidine-supplemented medium; type: cell-based; settings: medium supplemented with histidine (100 µM); drug-treated cells
Protocol: as §2
Figure 4 Antagonist effects on SmGPR-3 activity. (A) Yeast YEX108 auxotrophic his strain expressing SmGPR-3 was incubated with agonist (DA, 100 µM) and test antagonist or vehicle. Antagonists were tested at 100 µM except for flupenthixol, which was used at 10 µM. The data were normalized relative to the control sample that contained 100 µM DA but no antagonist. To test for drug induced toxicity, assays were repeated in the presence of 100 µM test antagonist in histidine-supplemented (his+) medium, which enables the cell to grow irrespective of receptor activation (His +ve control; see text for details). Abbreviations are as follows: SPIP, spiperone; PROP, propanolol; CLZP, clozapine; BUSP, buspirone; MINS, mianserin; CPRH, cyproheptadine; FLPX, flupenthixol; PRMZ, promethazine; HLRD, haloperidol. […] The error bars are the means ± SEM for 3–4 experiments and at least 2 clones (in triplicates).

SmGPR-3 [3] = target: T1, SmGPR-3; experiment: cell-based
Text: as §1
Functional expression assays were performed in yeast. […] The full-length SmGPR-3 cDNA was ligated to the Cp4258 vector and the recombinant plasmid was transformed into Saccharomyces cerevisae to test for receptor activity. We used a genetically modified S. cerevisae strain that is designed for GPCR activity assays. The yeast is auxotrophic for histidine and expresses a HIS3 reporter gene under the control of the FUS1 promoter. Activation of a recombinant GPCR in this system increases expression of the HIS3 reporter via the yeast's endogenous pheromone response, which in turn allows the cells to grow in selective histidine-deficient medium. Thus receptor activity can be quantified based on measurements of yeast growth in the selective medium, using a fluorometric Alamar Blue assay. Cells transformed with either empty vector (mock control) or SmGPR-3 were initially tested with all different biogenic amines, each at 2×10^−4 M (Fig. 3A).
Yeast cells transformed with empty plasmid were used as a negative control (mock).

[4] = 50 µM, compared to untreated larvae
[5] = each amine at 2×10^−4 M, relative to no drug control
[6] = drug 100 µM in the presence of 100 µM DA
[7] = 100 µM, 3-day-old schistosomula, 5 min after drug addition
[8] = 500 µM, compared to untreated larvae

CC(CN1c2ccccc2Sc2ccccc21)N(C)C (stereo not shown) [promethazine]
inhibition of SmGPR-2 (SmGPR-2): most potent inhibitors of SmGPR-2 | effect on motor activity of schistosomula (S. mansoni schistosomula; [4]): significant decrease in motor activity | IC50 (SmGPR-3 [1]): 28 µM | yeast growth in the presence of histidine (toxicity control) [2]: normal or nearly normal growth

CN1CCC(=C2c3ccccc3C=Cc3ccccc32)CC1 [cyproheptadine]
inhibition of SmGPR-3 activity (SmGPR-3 [1]): ≈ 70%

NC[C@H](O)c1ccc(O)c(O)c1 [noradrenaline]
SmGPR-3 activation by biogenic amine (SmGPR-3 [3]; [5]): stimulated SmGPR-3 activity but not to the same extent as dopamine or epinine

CC(C)NCC(O)COc1cccc2ccccc12 (stereo not shown) [propranolol]
effect on SmGPR-3 activity (SmGPR-3 [1]; [6]): no effect

CN1CCN2c3ccccc3Cc3ccccc3C2C1 (stereo not shown) [mianserin]
inhibition of SmGPR-3 activity (SmGPR-3 [1]): ≈ 70%

NCCc1ccc(O)c(O)c1 [dopamine]
effect on motor activity of schistosomula (S. mansoni schistosomula; [4]): decrease in motility | effect on motor activity of schistosomula (S. mansoni schistosomula; [7]): decreased both the amplitude and frequency of contractions | concentration at which significant inhibition of motility was observed (S. mansoni schistosomula): ≥ 10 µM | EC50 (SmGPR-3 [3]): 31 µM | SmGPR-3 activation by biogenic amine (SmGPR-3 [3]; [5]): selectively activated

OCCN1CCN(CCC=C2c3ccccc3Sc3ccc(C(F)(F)F)cc32)CC1 [flupenthixol]
inhibition of SmGPR-2 (SmGPR-2): most potent inhibitors of SmGPR-2 | effect on motor activity of schistosomula (S. mansoni schistosomula; [4]): significant decrease in motor activity | IC50 (SmGPR-3 [1]): 3.9 µM | yeast growth in the presence of histidine (toxicity control) [2]: normal or nearly normal growth

CNCC(O)c1ccc(O)c(OC)c1 (stereo not shown) [metanephrine]
increase in the frequency of body wall movements (S. mansoni schistosomula; 500 µM): ≈ 3 fold | effect on motor activity of schistosomula (S. mansoni schistosomula; [8]): marked hyperactivation | SmGPR-3 activation by biogenic amine (SmGPR-3 [3]; [5]): stimulated SmGPR-3 activity but not to the same extent as dopamine or epinine

CN1CCN(C2=Nc3cc(Cl)ccc3Nc3ccccc32)CC1 [clozapine]
effect on SmGPR-3 activity (SmGPR-3 [1]; [6]): modest or no significant inhibition

O=C(CCCN1CCC2(CC1)C(=O)NCN2c1ccccc1)c1ccc(F)cc1 [spiperone]
enhancement of SmGPR-3 activity (SmGPR-3 [1]; [6]): ~2 fold

CNCCc1ccc(O)c(O)c1 [epinine]
effect on motor activity of schistosomula (S. mansoni schistosomula; [4]): decrease in motility | effect on motor activity of schistosomula (S. mansoni schistosomula; [7]): virtual paralysis | concentration at which significant inhibition of motility was observed (S. mansoni schistosomula): ≥ 10 µM | EC50 (SmGPR-3 [3]): 28.5 µM | SmGPR-3 activation by biogenic amine (SmGPR-3 [3]; [5]): selectively activated

CNC[C@H](O)c1ccc(O)c(O)c1 [adrenaline]
effect on motor activity of schistosomula (S. mansoni schistosomula; [8]): decrease in motility | SmGPR-3 activation by biogenic amine (SmGPR-3 [3]): stimulated SmGPR-3 activity but not to the same extent as dopamine or epinine

O=C(CCCN1CCC(O)(c2ccc(Cl)cc2)CC1)c1ccc(F)cc1 [haloperidol]
effect on motor activity of schistosomula (S. mansoni schistosomula; [8]): no significant motor effects | yeast growth in the presence of histidine (toxicity control) [2]: normal or nearly normal growth
